We go through 4 molecules from patent US8597904B2, “Pharmaceutical compositions for the treatment of conditions responsive to proteasome inhibition” (priority 2007, dated 2013).

In assay [1] the test system is poly (ADP-ribose) polymerase (PARP). In words: Western blot of PARP cleavage in SK-N-SH cells. In kind it is cell-based, human. To be noted: Example 15, single agent. The protocol:
The induction of an apoptotic response in cancer cells by the addition of syringolin A was verified by monitoring the cleavage of poly (ADP-ribose) polymerase (PARP), a common response during apoptosis. SK-N-SH cells were cultured in the presence or absence of 20 μM syringolin A for 0, 24 and 48 hours, and cell lysates were then generated as described in Example 4 and probed for the presence of PARP by Western blotting using rabbit polyclonal anti-PARP (#9542) (diluted 1:1000) and the HRP-linked anti-rabbit secondary antibody described in Example 4. The results were representative of four independent experiments. […] The treatment of cells for 48 hours further increased the levels of cleaved PARP, whereas noncleaved PARP disappeared. In a similar manner, syringolin A induced PARP cleavage in SKOV3 cells, but noncleaved PARP was still detected 48 hours after treatment (FIG. 5B).
The role of glidobactin A (GlbA) in apoptosis and its correlation with autophagy has not previously been examined. Therefore, in a series of experiments, cell lysates of SK-N-SH cells were treated with GlbA in the presence and absence of the autophagy inhibitor 3-methyladenine (3-MA) and probed for poly ADP-ribose polymerase (PARP). The cleavage of PARP produces a smaller 89 kDa fragment which is indicative of late apoptosis.

Assay [2] deals with SK-N-SH cells. Kind of assay: Cytox-Glo cytotoxicity assay. Type of assay: cell-based, human. As to conditions: light microscope, 48 hours. The protocol: Determination of potential cytotoxic effects by GlbA and/or […] was carried out by using the Cytox-Glo cytotoxicity assay, which measures “dead cell proteases” from cells that have lost membrane integrity. Briefly, cells were treated with a single concentration of compound for 48 hours in a final volume of 100 μl, after which 50 μl of AAF-Glo luminogenic peptide substrate (alanyl-alanyl-phenylalanyl-aminoluciferin) was added to each well and incubated for 15 min at room temperature. The luminescence was measured by a Dynex MLX luminometer to give a reading of cells with damaged membranes. Next, 50 μl of digitonin was added to each well and the samples incubated for 15 minutes at room temperature. Luminescence was measured a second time to determine total cell number. Controls included cells with vehicle only, media, and media with compound.
SK-N-SH cells were treated with 0.25 μM GlbA or 25 μM SylA and SKOV3 cells were treated with 1.0 μM GlbA or 25 μM SylA. As illustrated in FIGS. 16A and 16B, control cells (treated with DMSO and H2O representing GlbA and SylA controls, respectively) were viable and no cytotoxicity was detected.
To determine if autophagy plays a role in GlbA/SylA-induced cell death, levels of cytotoxicity in cells pre-treated with 3-methyladenine (3-MA), an established autophagy inhibitor, were measured using the assay described in Example 12.

For assay [3], the system named is microtubule-associated protein 1 light chain 3 (LC3). Kind of assay: immunoblot of LC3 conversion (autophagy) in SK-N-SH cells. In kind it is cell-based, human. To be noted: compared to untreated control cells. The protocol:
To verify whether autophagy is induced in GlbA-treated cells, levels of microtubule-associated protein 1 light chain 3 (LC3), a reliable marker of autophagosomes, were measured. […] Therefore, this characteristic conversion of LC3 can be used to monitor autophagic activity. SK-N-SH cells were treated with GlbA in the presence or absence of 3-MA, and cell lysates were probed with LC3.
In general terms: In western blotting, separated proteins are transferred to a membrane and probed.

Assay [4] deals with T1, human erythrocyte 20S proteasomes, chymotrypsin-like activity (Homo sapiens, UniProt P28074).
T1 construct: which contains human erythrocyte 20S proteasomes; purchased BIOMOL International AK-740; host or cells: human erythrocytes
In kind it is biochemical. As to the method: A 100 μl reaction volume contained 2 μg/ml 20S proteasome, 100 μM substrate, and the desired concentrations of syringolin A in dilution buffer (50 mM Tris-HCl, pH 7.5, 25 mM KCl, 10 mM NaCl, 1 mM MgCl2). Epoximicin and MG132 (BIOMOL® International) were used as test inhibitors. The release of free AMC (7-amino-4-methylcoumarin) at 37° C. was monitored with an MWGt Sirius HT fluorescence microplate reader (BIO-TEK® Instruments) equipped with a 360 nm excitation and a 460 nm emission filter. Proteolytic activities were measured as the increase in relative fluorescence units (RFU) over time (FIG. 7A-C). […] The initial velocities (vi) were determined from the time derivative of these curves and plotted versus the corresponding inhibitor concentration ([I]). […] Using SigmaPlot, the data were fitted to the hyperbolic equation vi=c+[v0/(Ki′+[I])], where v0 is the velocity of the control. […] The rate of covalent inhibition (kassociation), which equals kobs/[I] was calculated over the range of inhibitor concentrations given in parentheses in FIG. 7D. Values in FIG. 7D represent means±standard deviation.
The fluorogenic substrates Suc-LLVY-AMC, Boc-LRR-AMC, and Z-LLE-AMC (BIOMOL® International) were used to monitor chymotrypsin-like, trypsin-like, and caspase-like activities, respectively. […] The release of free AMC (7-amino-4-methylcoumarin) at 37° C. was monitored with an MWGt Sirius HT fluorescence microplate reader (BIO-TEK® Instruments) equipped with a 360 nm excitation and a 460 nm emission filter.

Assay [5] addresses T2, bovine pancreas trypsin (Bos taurus, UniProt P00760).
T2 construct: bovine pancreas trypsin (Pierce); purchased Pierce; host or cells: bovine pancreas
Kind of assay: SensoLyte Green Protease Fluorometric Assay, trypsin inhibition. To be noted: syringolin A up to 500 μM. In kind it is biochemical. The protocol: (§1) To test the specificity of syringolin A inhibition of proteasome activities, bovine pancreas trypsin (Pierce) and Papaya latex papain (Sigma-Aldrich) inhibition assays with syringolin A were performed with the SensoLyte™ Green Protease Fluorometric Assay Kit (AnaSpec., San Jose, Calif., USA) according to the instructions of the manufacturer. Reaction volumes of 100 μl contained an enzyme concentration of 200 ng/ml and various amounts of test inhibitors. Protease activity was monitored at 33° C. in a FluoroCount Microplate Fluorometer (FluoroCount, Packard, Canberra, Australia) using 485 nm excitation and a 550 nm emission filters.

In assay [6] the target is T3, Papaya latex papain (Carica papaya, UniProt P00784).
T3 construct: Papaya latex papain (Sigma-Aldrich); purchased Sigma-Aldrich; host or cells: papaya latex
T3 sequence (P00784 134-345): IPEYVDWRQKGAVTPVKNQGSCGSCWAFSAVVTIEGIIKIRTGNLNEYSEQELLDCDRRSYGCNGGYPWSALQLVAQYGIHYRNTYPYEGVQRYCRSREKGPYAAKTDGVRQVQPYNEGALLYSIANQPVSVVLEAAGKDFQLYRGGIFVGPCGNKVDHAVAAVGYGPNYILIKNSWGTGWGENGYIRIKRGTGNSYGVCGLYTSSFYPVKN
In words: SensoLyte Green Protease Fluorometric Assay, papain inhibition. To be noted: syringolin A up to 500 μM. Type of assay: biochemical. The protocol: as §1

Assay [7] concerns the target T4, proteasome activity in SK-N-SH neuroblastoma cells (Homo sapiens, UniProt P28074).
T4 construct: endogenous in cells; host or cells: SK-N-SH
T4 sequence (P28074 60-263): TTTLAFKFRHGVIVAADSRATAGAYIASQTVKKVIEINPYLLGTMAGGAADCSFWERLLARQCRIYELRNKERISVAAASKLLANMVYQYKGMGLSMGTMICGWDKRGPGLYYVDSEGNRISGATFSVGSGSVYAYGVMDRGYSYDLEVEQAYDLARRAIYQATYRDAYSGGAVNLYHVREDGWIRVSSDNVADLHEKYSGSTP
In words: Proteasome-Glo cell-based luminescent assay. As to conditions: 2 hours incubation. As to the method:
Syringolin A was tested as a proteasome inhibitor in vivo in cultured mammalian cancer cells. Inhibition of proteasome activity in human SK-N-SH neuroblastoma cells was measured using the Proteasome-Glo™ cell-based luminescent assay (Promega) in solid white 96-well microtiter cell culture plates. Ten μl of syringolin A (at various concentrations) was added to each well containing SK-N-SH cells (plated at a concentration of 1.0×10^5 cells/ml in 90 μl well volumes 24 hours prior) and a negative control and media only control were included. Cells were incubated with 1-100 μM syringolin A for 2 hours or 24 hours, and then equilibrated to room temperature for 15 minutes before 100 μl of Proteasome-Glo reagent (containing bioluminescent substrate Suc-LLVY-aminoluciferin) was added to the cells. Luminescence (indicated as relative luminescence units [RLU]) was read after 15-30 minutes on a Dynex MLX Luminometer.
To trace the kinetics of proteasome inhibition in the presence of syringolin, the same experiment was performed, but in this case, 100 μl of Proteasome-Glo reagent was added to cells first, followed by the addition of syringolin A at various concentrations, and the proteasome activity was measured over time.
The cell culture-based proteasome inhibition assay was performed as previously described (Groll et al. 2008. Nature 452:755-758, which is incorporated herein by reference in its entirety). Briefly, wells of white-walled 96-well microtiter cell culture plates were seeded at a density of 1×10^4 cells/well (SK-N-SH) or 5×10^3 cells/well (SKOV3) in 90 μl. After 24 hours, 10 μl GlbA or SylA were added at increasing concentrations (0-100 μM) and incubated for 2 hours. […] Cell Death Differ 9:1017-1025; Meng, et al. 1999. PNAS 96:10403-10408, each of which is incorporated herein by reference in its entirety) were used as positive and negative controls, respectively. Microtiter plates were then equilibrated to room temperature for 15 min before adding 100 μl of proteasome Glo™ reagent (containing bioluminescent substrate Suc-LLVY-aminoluciferin) per well. Luminescence was measured on a Dynex MLX luminometer, according to the manufacturer's instructions (Promega).

Residues, ends and D or L forms follow the SMILES beside them. *: point of attachment. Cbz = O=C(OCc1ccccc1)*

T2 sequence (P00760 24-246): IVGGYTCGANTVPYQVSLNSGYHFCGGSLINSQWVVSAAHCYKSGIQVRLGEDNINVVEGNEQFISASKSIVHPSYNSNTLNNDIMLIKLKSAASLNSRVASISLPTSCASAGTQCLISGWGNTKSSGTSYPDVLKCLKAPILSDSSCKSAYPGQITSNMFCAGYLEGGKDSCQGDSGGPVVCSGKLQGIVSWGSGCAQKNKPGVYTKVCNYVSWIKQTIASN

Regarding `Cn1cnc(N)c2ncnc1-2` [3-MA, 3-methyladenine, reference compound], the PARP cleavage result in assay [1] is recorded as “had no effect on PARP cleavage”. Also, the “cell proliferation and killing, 3-MA control cells” value in assay [2] was “suppresses SK-N-SH cell proliferation without killing cells”. For the same molecule, the “LC3-II amount / conversion of LC3” value in assay [3] is “did not alter the conversion of LC3”.
In the case of `CC(C)C[C@@H](C=O)NC(=O)[C@H](CC(C)C)NC(=O)[C@H](CC(C)C)NC(=O)OCc1ccccc1` [MG-132, reference compound] (Cbz-Leu-Leu-Leu-aldehyde), in assay [4], the “mode of proteasome inhibition (reaction velocity over time)” value is on record as “reversible”. The trypsin activity result in assay [5] is given as “trypsin inhibitor”. Besides, the papain activity entry in assay [6] is on record as “also inhibits cysteine proteases”.
Take `C/C=C/C/C=C/CCC(=O)[C@H]1O[C@H]1C(N)=O` [cerulenin, reference compound]: in assay [7], the “proteasome activity in cells” value is recorded as “does not significantly inhibit proteasome activity”.
As for glidobactin A, the proteasome chymotrypsin-like activity result in assay [4] (500-fold dilution of 10× concentrated HPLC peak) is “reduced proteasome activity to background levels”.
